Patent US8895599B2, “Lipoprotein lipase-activating compositions comprising benzene derivates” (Otsuka Pharmaceutical Factory, Inc., priority 2008, dated 2014)

Experiments:
human LPL mRNA = assay: Test for increase in LPL mRNA expression (luciferase assay, HTB-92/p387/p383 cell line); type: cell-based; settings: 120 h, HTB-92/p387/p383 cells, 5 days; for maximal fold induction: Max. Ind. Value=Lt/Lc, maximum luciferase activity over control; for EC50: concentration that increases LPL mRNA expression over the control by 50%
Description: Pharmacological Test 1 Test for Increase in LPL mRNA Expression
A luciferase assay was employed to simply and quickly detect an increase in human LPL mRNA. The principle of the assay is as follows:
Luciferase emits light when reacted with luciferine (substrate). The expression of LPL mRNA is controlled by 5′-UTR and 3′-UTR (promoter regions) of the LPL gene. By introducing the promoter regions of the LPL gene into a commercially available plasmid (for example, that produced by Clonetics Corp.) to produce a plasmid (reporter plasmid) that stably expresses luciferase in human cells, such a plasmid expresses luciferase only under conditions in which LPL mRNA can increase. Therefore, when the substrate is introduced to the expression system and the amount of luciferase expression (luciferase activity) is quantified as the extent of chemiluminescence, the amount of LPL mRNA expression can be estimated.
The test herein was performed as follows: Using a plasmid for the luciferase assay manufactured by Clontech, wherein human LPL 5′-UTR (Enerback, S., et al., Mol. Cell. Biol. 12 (10) (1992): 4622-4633) and 3′-UTR (Wion, K. L., et al., Science 235 (1987): 4796, 1638-1641) had been inserted, human-derived liposarcoma cell line SW872 (ATCC Accession No. HTB-92) was transformed to prepare an HTB-92/p387/p383 cell line, which stably expresses luciferase.
This HTB-92/p387/p383 cell line was introduced into a 225 cm^2 culture flask furnished with a culture medium and cultured at 37° C. in the absence of CO2 until reaching confluence. Leibovitz's L-15 culture medium (containing 10% FBS, 1% GlutaMaxII, 10 μg/ml streptomycin, 1 μg/ml puromycin, 250 μg/ml hygromycin B) was used as the culture medium. After reaching confluence, the cells were collected, plated on 384-well plates to have 20000 cells/well, and cultured with 50 μl/well of the culture medium under the same conditions as above (37° C., absence of CO2). After 3 days of culturing, the culture medium was replaced by 50 μl/well phenol-red-free DMEM (containing 10% FBS, 1% GlutaMax, 10 U/ml penicillin, 10 μg/ml streptomycin, 1 μg/ml puromycin, 250 μg/ml hygromycin, 1 μM dexamethasone, 0.5 μM IBMX; differentiation medium), and the cells were cultured for 5 more days at 37° C. in the presence of CO2 to differentiate.
Furthermore, the culture medium was replaced by a 50 μl/well medium containing a compound of the invention (compound prepared in an Example) as a test substance wherein the compound had been conditioned with DMSO to a specific concentration selected from 10^−4 M to 3×10^−10M. The cells were cultured for 5 days at 37° C. in the presence of CO2.
After 5 days of culturing, a luciferase substrate solution (manufactured by Promega Corporation) was introduced to each well in an amount of 30 μl/well. The cells were left to stand 10 minutes at room temperature, and luciferase activities were measured by a luminometer (a microplate scintilltion counter; The Wallac MicroBeta Trilux, manufactured by Perkin Elmer, Inc.).
Cells that had been cultured and differentiated in a differentiation medium prepared by adding 0.1% DMSO to the above-mentioned DMEM medium (differentiation medium) not containing phenol red were used as a control (i.e., cultured and differentiated for 5 days and then stimulated for 5 days). The luciferase activity of these control cells were measured as above. The EC50 value (the concentration of test substance that can increase the amount of LPL mRNA expression over the control by 50%, unit: M) was calculated based on the straight line obtained by plotting the results of the tests performed using the test substances at varying concentrations. The maximum induction (Max. Ind. values) was calculated according to the following equation: Max. Ind. Value=Lt/Lc wherein Lt represents the maximum luciferase activity occurred in response to test substance stimulation; and Lc represents the value indicating the luciferase activity of the control.

[1] = Therapeutical effect on olive oil-induced triglyceride hyperlipidemia models; type: in vivo; settings: once a day for one week, SD rats, 2 h after olive oil
Experimental: Test of Therapeutical Effect on Olive Oil-Induced Triglyceride Hyperlipidemia Models
To conduct this test, 6-week-old SD rats (purchased from Charles River Japan) were used.
According to the body weight of the test rats when they were 5 weeks old, the test rats were divided into test groups and a control group with 6 rats per group.
A predetermined amount of each compound prepared in the Examples was measured and placed in an agate mortar. While 5% aqueous gum arabic solution was gradually introduced to the mortar, the compound was uniformly ground and suspended. Test samples were prepared by further adding 5% aqueous gum arabic solution gradually. Subsequently, these test samples were subjected to ultrasonic washing for 10 minutes to homogenize. Test samples were prepared as and when necessary.
The rats of the test groups were orally administered with the compounds of the invention such that rats received the compounds in an amount of 10, 30, or 100 mg/kg. The compounds of the invention were formulated as 5% gum arabic suspensions as described above.
The rats of the control group were orally administered with 5% aqueous gum arabic solution (not containing the compounds of the invention) in an amount of 5 ml/kg body weight. Administration was conducted once a day continuously for one week at a specific time of day after the rats reached 6 weeks of age. This test was performed under non-fasting conditions (rats had free access to feed and water), and the rats were fasted after the final administration of the compounds or 5% aqueous gum arabic solution.
Two hours after the final administration, olive oil was orally administered to the rats from both groups in an amount of 3 ml/kg body weight.
Two hours after the olive oil administration, blood was collected from the abdominal aorta of the rats of the respective groups using a heparinized syringe. The plasma was centrifugally separated from the blood at a temperature of 4° C., and the triglyceride level of the plasma was measured. A Hitachi 7170 automatic analyzer was used as the measuring instrument. Using the values measured from the test groups and control group, the decrease (%) in plasma triglyceride level was calculated according to the following equation: Decrease (%) in plasma triglyceride concentration=(1−E/C)×100 wherein E represents the average plasma triglyceride level in each test group; and C represents the average plasma triglyceride level in the control group.

[2] = Anti-obesity test using Zucker fatty rats; type: in vivo; settings: 100 mg/kg oral, once a day over 4 weeks, relative to control group
Description: Anti-Obesity Test Using Zucker Fatty Rats
Zucker fatty rats are obese rats discovered by Zucker et al., in 1961 as mutants among 13 M rats, which are a hybrid between 13C and M rats. These rats (fa/fa) start to appear distinctly obese from normal broods around the age of 3 weeks. As they age, the weight difference between the fatty rats and normal rats increases. Zucker fatty rats are currently kept by a variety of organizations as simple obesity models, and are readily obtainable.
This test was performed using this rat model to evaluate the anti-obesity action of the compounds of the invention. The preparation method of test samples and the test procedures are described below:
The test samples were prepared in the same manner as in Test Example 2.
Zucker fatty rats and lean rats (both from Charles River Japan) were purchased at the age of 5 weeks. They were divided into groups (10 rats per group) according to body weight when they reached 6 weeks old. After acclimatization, the administration of test samples was initiated when the rats reached 8 weeks old. Test samples were orally administered using an oral gavage so that the compounds of the invention contained in the test samples were given in an amount of 100 mg/kg body weight (test sample dosage: 5 ml/kg body weight). The test samples were administered once a day over 4 weeks at a specific time of day.
As a control, a group of rats were administered with the same amount of 5% aqueous gum arabic solution (5 ml/kg body weight) instead of the test samples.
The rats of all groups were weighed on the last day of administration. The average body weight of the rats of each test group was compared with the average body weight (standard weight) of the rats of the control group to obtain the weight variations (differences). The weight differences were expressed as percentages in relation to the standard weight. The values thus calculated are referred to as “weight change %”. When a weight difference is negative relative to the standard weight, weight change % is shown with “−” (minus).
During the test period, the rats of the respective groups had free access to rat feed (“CRF-1”, manufactured by Oriental Yeast, Co., Ltd.) and water (tap water).

LPL = assay: Test for LPL activity-increasing effect in normal rats (skeletal muscle LPL activity); type: in vivo; settings: every day for 1 week, SD rats, soleus muscle, 4 h after administration
Experimental: Test for LPL Activity-Increasing Effect in Normal Rats
6-week-old SD rats (purchased from Charles River Japan) were used as subjects. The rats were divided into groups according to body weight at the age of 5 weeks. The rats in each test group were orally administered with a 5% gum arabic suspension in an amount of 5 ml/kg of body weight, the suspension containing the test compound of the invention in such an amount that the dose of the compound of the invention became 30 mg/kg of body weight in one group and 100 mg/kg of body weight in another group. The rats in a control group were orally administered with a 5% gum arabic suspension (not containing the test compound of the invention) in an amount of 5 ml/kg of body weight. Each sample suspension was orally administered every day at a specific time of day for 1 week starting when the rats reached the age of 6 weeks.
Four hours after the administration of the sample suspension, skeletal muscle tissues of the rats were collected, then freeze-clamped and stored under liquid nitrogen. LPL activity in the skeletal muscle tissues was measured by the following method.
The soleus muscle was homogenized in a chilled solution of 0.05 mol/L NH4OH—NH4Cl buffer (pH 8.5) containing 0.5 U/mL heparin at 1 mL/100 mg of tissue wet weight. After standing on ice for 60 min with vigorous mixing at intervals of 15 min, the homogenate was centrifuged at 3000 rpm and 4° C. for 10 min and the supernatant was separated.
The substrate solution was prepared by mixing 2 μCi of glycerol tri[1-^14C]oleate, 0.133 g of unlabeled triolein, 0.9 mL of 1% Triton X-100, and 0.9 mL of 4% bovine serum albumin. in 0.2 mol/L Tris-HCl buffer (pH 8.6) and 10.2 mL of 0.2 mol/L Tris-HCl buffer (pH 8.6). The mixture was emulsified by sonication on ice for 3 min.
In a glass test tube, 0.1 mL of the tissue extract, 0.05 mL of heat-inactivated rat serum and 0.15 mL of 4% bovine serum albumin in 0.2 mol/L Tris-HCl buffer (pH 7.4) were mixed. Enzyme reaction was started by adding 0.2 mL of the substrate solution and was carried out for 30 min. at 37° C.
The reaction was stopped by addition of 2 mL of 1.5 mol/L H2SO4/2-propanol (1:40, v/v), and 1 mL of distilled water and 3 mL of hexane were added into the test tube. After vigorously shaking for 10 min. at room temperature, the test tube was centrifuged for 10 min. at 3000 rpm.
The upper layer (3.5 mL) was collected in a new test tube and mixed with 1 mL of 0.1 mol/L KOH.
The test tube was vigorously shaken for 10 min. at room temperature and then centrifuged for 10 min. at 3000 rpm.
After removing the upper layer, 1 mL of the lower layer (water phase) was transferred into a vial for counting, neutralized with 50 μL of 1.3 mol/L HCl and mixed with 4 mL of scintillator. The radioactivity was measured using a liquid scintillation counter.
The LPL activity increase (%) was calculated from the measured values of LPL activity in the control group and test groups according to the following formula: LPL activity increase (%)=(Test group average value)/(Control group average value)×100−100

Compound | maximal fold induction (human LPL mRNA) | EC50 (human LPL mRNA) | Decrease in plasma triglyceride level (%) ([1]; 10 mg/kg oral) | Decrease in plasma triglyceride level (%) ([1]; 30 mg/kg oral) | Decrease in plasma triglyceride level (%) ([1]; 100 mg/kg oral) | Weight Change (%) [2] | melting point | Increase of skeletal muscle LPL activity compared to control (%) (LPL; 30 mg/kg oral) | Increase of skeletal muscle LPL activity compared to control (%) (LPL; 100 mg/kg oral)
COc1cc(-c2cn3ccccc3n2)ccc1OCc1ccccc1 [Example 1, 2-(4-benzyloxy-3-methoxyphenyl)imidazo[1,2-a]pyridine] | 3 | 6.3 µM | 26% | 50% | 76% | −8% | 128 to 129.5 °C |  | 
COc1cc(-c2cn3ccsc3n2)ccc1OCc1ccc(Cl)cc1 [Example 23, 6-[4-(4-chlorobenzyloxy)-3-methoxyphenyl]imidazo[2,1-b]thiazole] |  |  | 66% | 78% | 77% |  | 126 to 128 °C | 18% | 15%
COc1cc(-c2cn3ccccc3n2)ccc1OCc1ccc(C#N)cc1 [Example 30] | 1.9 | 6.7 µM |  |  |  |  | 175 to 177 °C | 22% | 31%
COc1cc(-c2cn3cccc(OCc4ccccc4)c3n2)ccc1OCc1ccc(Br)cc1 [Example 85] |  |  |  |  |  |  | 168 to 169 °C | 9% | 36%
COc1cc(-c2c[nH]c(-c3ccc(C(F)(F)F)cc3)n2)ccc1OCc1ccccc1.Cl [Example 95, 4-(4-benzyloxy-3-methoxyphenyl)-2-(4-trifluoromethylphenyl)imidazole] |  |  | 28% | 65% | 81% | −15% | 247 to 249 °C | 13% | 25%
